A short description of data set [1]: side effects above the maximum tolerable dosages (IRWIN test). The class given is in vivo. As for the experimental part: FIG. 1 and Table 1 show the reaction of test animals (10 mice each) 20-45 minutes after the intraperitoneal administration of selected compounds. In each case, the maximum dosage selected for the concentration of azaspiro compounds was held, by a factor of about 2, below the toxic dose previously determined in the IRWIN test (Irwin, Psychopharmacologia 13 (1968) 222).
(§1) First, the highest possible non-toxic concentration of the respective test substances that could be used was determined by an IRWIN test (Irwin, Psychopharmacologia 13, 1968, 222).

The subject of data set [2] is NMRl mice. Nature of the data set: formalin test, in-vivo test for determining the analgesic efficacy. The arrangement: key to Mean deviation of the pain reaction compared to control (%) (n minutes after administration of formalin) 20-25′ / Mean deviation of the pain reaction compared to control (%) (n minutes after administration of formalin) 30-35′: (+): Intensified pain reaction. The settings on record: for Mean deviation of the pain reaction compared to control (%) (n minutes after administration of formalin) 20-25′: 20-25′ after formalin; for Mean deviation of the pain reaction compared to control (%) (n minutes after administration of formalin) 30-35′: 30-35′ after formalin; for Mean deviation of the pain reaction compared to control (%) (n minutes after administration of formalin) 40-45′: 40-45′ after formalin; for average reduction of the pain reaction: after 30-45 minutes in the formalin test. How it is done:
In each case, the maximum dosage selected for the concentration of azaspiro compounds was held, by a factor of about 2, below the toxic dose previously determined in the IRWIN test (Irwin, Psychopharmacologia 13 (1968) 222).
A reduction in the pain reaction is expressed in negative percentage figures.
The test was conducted as described by Wheeler-Aceto (Psychopharmacology 104, 1991, 35).
NMRl mice having a weight of 20-25 g were kept under controlled conditions (22±2° C., 40-70% relative humidity). 25 μl of a 5% […] solution was injected in the hind leg and the leg-licking frequency was then clocked for 5 minutes each at defined intervals (20, 30, 40 minutes).
as §1
The test substances were dissolved in a physiological salt solution with 0.5% sodium carboxymethyl cellulose and were each measured in 1-3 dosages that had been applied intraperitoneally 10 minutes before administration of formalin. The comparative reference value was provided by a control excipient (10 ml/kg).
The test was performed in blind fashion on 10 mice per test series. The evaluation was based on a comparison of the treated animals with control excipients at three different times. […] Accordingly, an average 50% reduction of the pain reaction for the treated animals is obtained when in a defined period (e.g. 30-35′ after the formalin injection) the leg-licking duration (averaged over the 10 test animals) is reduced by 50% compared to the untreated animals. The statistical significance was determined using the Mann-Whitney U-test.

Where [3] appears, read: 8 mg/kg i.p., Test series 1, n = 10 mice.
Setting [4] is: 8 mg/kg i.p., Test series 2, n = 10 mice.
[5] abbreviates: 16 mg/kg i.p., Test series 1, n = 10 mice.
[6] abbreviates: 16 mg/kg i.p., Test series 2, n = 10 mice.
[7] abbreviates: 32 mg/kg i.p., Test series 1, n = 10 mice.
Setting [8] is: 32 mg/kg i.p., Test series 2, n = 10 mice.
[9] abbreviates: 4 mg/kg i.p., Test series 2, n = 10 mice.
Where [10] appears, read: 64 mg/kg i.p., Test series 1, n = 10 mice.
[11] abbreviates: 64 mg/kg i.p., Test series 2, n = 10 mice.

Turning to `O=C1CC2(CCCCC2)CN1` [GBP-L, 2-azaspiro[4.5]decan-3-on, reference compound], in data set [1], the lethality result is given as “significant lethality rate”. For the same compound, the “Mean deviation of the pain reaction compared to control (%) (n minutes after administration of formalin) 20-25′” value in data set [2] (setting [3]) is given as −58%; in data set [2] (setting [4]) it was “(+)”; in data set [2] (setting [5]) it was −74%; in data set [2] (setting [6]) it was “(+)”; in data set [2] (setting [7]) it was −64%; in data set [2] (setting [8]), “(+)”. Moreover, the “Mean deviation of the pain reaction compared to control (%) (n minutes after administration of formalin) 30-35′” value is given as −18% in data set [2] (setting [3]); “(+)” in data set [2] (setting [4]); −40% in data set [2] (setting [5]); “(+)” in data set [2] (setting [6]); −15% in data set [2] (setting [7]); −10% in data set [2] (setting [8]). Further, the “Mean deviation of the pain reaction compared to control (%) (n minutes after administration of formalin) 40-45′” value was −15% in data set [2] (setting [3]), −41% in data set [2] (setting [5]) and −46% in data set [2] (setting [7]).

With `S=C1CC2(CCCCC2)CN1` [SPM 0013, 2-azaspiro[4.5]decane-3-thion], in data set [2] (32 mg/kg i.p., n = 10 mice), the “Mean deviation of the pain reaction compared to control (%) (n minutes after administration of formalin) 20-25′” value is −99%, the “Mean deviation of the pain reaction compared to control (%) (n minutes after administration of formalin) 30-35′” value was −32% and the “Mean deviation of the pain reaction compared to control (%) (n minutes after administration of formalin) 40-45′” value is −4%.

As to `C1CCC2(CC1)CCNC2` [SPM 0019, 2-azaspiro[4.5]decane], in data set [2] (32 mg/kg i.p., n = 10 mice), the “Mean deviation of the pain reaction compared to control (%) (n minutes after administration of formalin) 20-25′” value is −67%, the “Mean deviation of the pain reaction compared to control (%) (n minutes after administration of formalin) 30-35′” value is given as −21% and the “Mean deviation of the pain reaction compared to control (%) (n minutes after administration of formalin) 40-45′” value is on record as −26%.

With `ON=C1CC2(CCCCC2)CN1` [SPM 6850, N-(2-azaspiro[4.5]decane-3)-oxim], in data set [2] (32 mg/kg i.p., n = 10 mice), the “Mean deviation of the pain reaction compared to control (%) (n minutes after administration of formalin) 20-25′” value is on record as “(+)”, the “Mean deviation of the pain reaction compared to control (%) (n minutes after administration of formalin) 30-35′” value is −50% and the “Mean deviation of the pain reaction compared to control (%) (n minutes after administration of formalin) 40-45′” value was −38%. Further, the “average reduction of the pain reaction” value in data set [2] (32 mg/kg per Table 1) is 44%.

Turning to `S=C1CC2(CCCCCC2)CN1` [SPM 6868, 2-azaspiro[4.6]undecane-3-thion], the melting point came out at 132.3 °C. In addition, in data set [2] (setting [9]), the “Mean deviation of the pain reaction compared to control (%) (n minutes after administration of formalin) 20-25′” value is given as −53%, the “Mean deviation of the pain reaction compared to control (%) (n minutes after administration of formalin) 30-35′” value was −7% and the “Mean deviation of the pain reaction compared to control (%) (n minutes after administration of formalin) 40-45′” value was −16%. In data set [2] (setting [5]), the “Mean deviation of the pain reaction compared to control (%) (n minutes after administration of formalin) 20-25′” value is on record as −62%, the “Mean deviation of the pain reaction compared to control (%) (n minutes after administration of formalin) 30-35′” value is reported as −29% and the “Mean deviation of the pain reaction compared to control (%) (n minutes after administration of formalin) 40-45′” value is given as −49%. In addition, in data set [2] (setting [6]), the “Mean deviation of the pain reaction compared to control (%) (n minutes after administration of formalin) 20-25′” value is given as −42%, the “Mean deviation of the pain reaction compared to control (%) (n minutes after administration of formalin) 30-35′” value is −30% and the “Mean deviation of the pain reaction compared to control (%) (n minutes after administration of formalin) 40-45′” value was −31%. Moreover, in data set [2] (setting [7]), the “Mean deviation of the pain reaction compared to control (%) (n minutes after administration of formalin) 20-25′” value is given as −83%, the “Mean deviation of the pain reaction compared to control (%) (n minutes after administration of formalin) 30-35′” value is recorded as −0% and the “Mean deviation of the pain reaction compared to control (%) (n minutes after administration of formalin) 40-45′” value was −24%. Further, in data set [2] (setting [10]), the “Mean deviation of the pain reaction compared to control (%) (n minutes after administration of formalin) 20-25′” value is listed as −89%, the “Mean deviation of the pain reaction compared to control (%) (n minutes after administration of formalin) 30-35′” value was −67% and the “Mean deviation of the pain reaction compared to control (%) (n minutes after administration of formalin) 40-45′” value is given as −83%. Also, in data set [2] (setting [11]), the “Mean deviation of the pain reaction compared to control (%) (n minutes after administration of formalin) 20-25′” value is −100%, the “Mean deviation of the pain reaction compared to control (%) (n minutes after administration of formalin) 30-35′” value is listed as −98% and the “Mean deviation of the pain reaction compared to control (%) (n minutes after administration of formalin) 40-45′” value was −93%.

Consider `ON=C1CC2(CCCCCC2)CN1` [SPM 6873, N-(2-azaspiro[4.6]undecane-3)-oxim], for which, in data set [2] (16 mg/kg i.p., n = 10 mice), the “Mean deviation of the pain reaction compared to control (%) (n minutes after administration of formalin) 20-25′” value is “(+)”, the “Mean deviation of the pain reaction compared to control (%) (n minutes after administration of formalin) 30-35′” value is reported as −35% and the “Mean deviation of the pain reaction compared to control (%) (n minutes after administration of formalin) 40-45′” value is given as −38%. Further, the “average reduction of the pain reaction” value in data set [2] (16 mg/kg per Table 1) was 36.5%.
